Consider 32 compounds from patent US10913727B2, “Modulators of the integrated stress pathway” (Calico Life Sciences LLC, priority 2016, dated 2021).

Molecules are shown by their SMILES.

The subject of this test is HEK293T cells carrying the ATF4 luciferase reporter. Nature of the test: ATF4-Luc assay, in vitro model of Vanishing Cell White Matter Disease (VWMD). In kind it is cell-based. The following applies: Homo sapiens, HEK-293T, 1 μg/mL tunicamycin, 7 hours, One Glo luminescence. In outline: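 Stable HEK293T line with human ATF4 5′-UTR–firefly luciferase reporter treated with 1 μg/mL tunicamycin plus 200 nM compound for 7 h. Luminescence read; EC50 derived.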
Take `O=C(COc1ccc(C(F)(F)F)nc1)NC12CC(Nc3ccnc4cc(Cl)ccc34)(C1)C2` [Compound 385, N-{3-[(7-chloroquinolin-4-yl)amino]bicyclo[1.1.1]pentan-1-yl}-2-{[6-(trifluoromethyl)pyridin-3-yl]oxy}acetamide]: the EC50 (in general, the concentration needed to bring the measured effect to its halfway point) fell in the range of 250 to 1000 nM. For the compound `Cc1nc(C(=O)NC23CCC(NC(=O)COc4ccc(Cl)c(F)c4)(CC2)C(O)C3)n[nH]1` (centres unmarked) [Compound 487, N-{4-[2-(4-chloro-3-fluorophenoxy)acetamido]-3-hydroxybicyclo[2.2.2]octan-1-yl}-5-methyl-1H-1,2,4-triazole-3-carboxamide], the EC50 was under 50 nM. The result for `Cc1cc2c(NC34CC(NC(=O)COc5cccc(F)c5)(C3)C4)nccn2n1` [Compound 640, 2-(3-fluorophenoxy)-N-{3-[(2-methylpyrazolo[1,5-a]pyrazin-4-yl)amino]bicyclo[1.1.1]pentan-1-yl}acetamide] reads 250 to 1000 nM; that for `O=C(COc1ccc(Cl)c(F)c1)NC12CC(NC(=O)c3ccncc3)(C1)C2` [Compound 186, N-{3-[2-(4-chloro-3-fluorophenoxy)acetamido]bicyclo[1.1.1]pentan-1-yl}pyridine-4-carboxamide], 250 to 1000 nM; that for `O=C(COc1ccc(Cl)c(F)c1)NC12CC(NC(=O)c3cnn4c3CCCC4)(C1)C2` [Compound 903, N-{3-[2-(4-chloro-3-fluorophenoxy)acetamido]bicyclo[1.1.1]pentan-1-yl}-4,5,6,7-tetrahydropyrazolo[1,5-a]pyridine-3-carboxamide], over 2000 nM.

Regarding `O=C(COc1ccc(Cl)c(F)c1)NC12CC(NC(=O)c3cncc(F)c3)(C1)C2` [Compound 792, N-{3-[2-(4-chloro-3-fluorophenoxy)acetamido]bicyclo[1.1.1]pentan-1-yl}-5-fluoropyridine-3-carboxamide], the EC50 fell in the range of 250 to 1000 nM. The result for `CCCc1cnc(C(=O)NC23CC(NC(=O)COc4ccc(Cl)c(F)c4)(C2)C3)cn1` [Compound 334, N-{3-[2-(4-chloro-3-fluorophenoxy)acetamido]bicyclo[1.1.1]pentan-1-yl}-5-propylpyrazine-2-carboxamide] reads under 50 nM. `Cn1ncc2cccc(C(=O)NC34CC(NC(=O)COc5ccc(Cl)c(F)c5)(C3)C4)c21` [Compound 786, N-{3-[2-(4-chloro-3-fluorophenoxy)acetamido]bicyclo[1.1.1]pentan-1-yl}-1-methyl-1H-indazole-7-carboxamide]: the half-maximal effective concentration (EC50) is over 2000 nM. Take `CCc1cc(C(=O)NC23CCC(NC(=O)COc4ccc(Cl)c(Cl)c4)(CC2)[C@@H](O)C3)on1` [Compound 694, N-{(3S)-4-[2-(3,4-dichlorophenoxy)acetamido]-3-hydroxybicyclo[2.2.2]octan-1-yl}-3-ethyl-1,2-oxazole-5-carboxamide]: the 50% effective concentration (EC50) is under 50 nM. The result for `O=C(COc1ccc(C(F)(F)F)nc1)NC12CC(NC(=O)c3ccc(OC(F)(F)F)cn3)(C1)C2` [Compound 454, 5-(trifluoromethoxy)-N-[3-(2-{[6-(trifluoromethyl)pyridin-3-yl]oxy}acetamido)bicyclo[1.1.1]pentan-1-yl]pyridine-2-carboxamide] reads 50 to 250 nM; that for `O=C(COc1ccc(Cl)c(F)c1)NC12CC(NC(=O)c3csc(C(F)(F)F)n3)(C1)C2` [Compound 641, N-{3-[2-(4-chloro-3-fluorophenoxy)acetamido]bicyclo[1.1.1]pentan-1-yl}-2-(trifluoromethyl)-1,3-thiazole-4-carboxamide], under 50 nM.

Turning to `COc1cc(C(=O)NC23CC(NC(=O)COc4ccc(Cl)c(F)c4)(C2)C3)on1` [Compound 253, N-{3-[2-(4-chloro-3-fluorophenoxy)acetamido]bicyclo[1.1.1]pentan-1-yl}-3-methoxy-1,2-oxazole-5-carboxamide], the EC50 fell in the range of 50 to 250 nM. For `Cc1csc(C(=O)NC23CC(NC(=O)COc4ccc(Cl)c(F)c4)(C2)C3)c1` [Compound 875, N-{3-[2-(4-chloro-3-fluorophenoxy)acetamido]bicyclo[1.1.1]pentan-1-yl}-4-methylthiophene-2-carboxamide], the EC50 is under 50 nM. The result for `CC(C)(O)CCc1ccnc(C(=O)NC23CC(NC(=O)COc4ccc(Cl)c(F)c4)(C2)C3)c1` [Compound 432, N-{3-[2-(4-chloro-3-fluorophenoxy)acetamido]bicyclo[1.1.1]pentan-1-yl}-4-(3-hydroxy-3-methylbutyl)pyridine-2-carboxamide] reads over 2000 nM; that for `O=C(COc1ccc(Cl)c(F)c1)NC12CC(Nc3cnccn3)(C1)C2` [Compound 725, 2-(4-chloro-3-fluorophenoxy)-N-{3-[(pyrazin-2-yl)amino]bicyclo[1.1.1]pentan-1-yl}acetamide], 1000 to 2000 nM.

On to `CC(C)c1ccc(C(=O)NC23CC(NC(=O)COc4ccc(Cl)c(Cl)c4)(C2)C3)cn1` [Compound 643, N-{3-[2-(3,4-dichlorophenoxy)acetamido]bicyclo[1.1.1]pentan-1-yl}-6-(propan-2-yl)pyridine-3-carboxamide], for which the EC50 lay in the range of 250 to 1000 nM. Next, `CC(C)(C)OC(=O)NCc1ccnc(C(=O)NC23CC(NC(=O)COc4ccc(Cl)c(Cl)c4)(C2)C3)c1` [Compound 580, tert-butyl {[2-({3-[2-(3,4-dichlorophenoxy)acetamido]bicyclo[1.1.1]pentan-1-yl}carbamoyl)pyridin-4-yl]methyl}carbamate]: over 2000 nM; `Cc1cc2c(NC34CC(NC(=O)COc5ccc(Cl)c(F)c5)(C3)C4)nccn2n1` [Compound 394, 2-(4-chloro-3-fluorophenoxy)-N-{3-[(2-methylpyrazolo[1,5-a]pyrazin-4-yl)amino]bicyclo[1.1.1]pentan-1-yl}acetamide]: under 50 nM; `COc1ccc(C(=O)NC23CCC(NC(=O)COc4ccc(Cl)c(F)c4)(CC2)C(O)C3)nc1` (centres unmarked) [Compound 922, N-{4-[2-(4-chloro-3-fluorophenoxy)acetamido]-3-hydroxybicyclo[2.2.2]octan-1-yl}-5-methoxypyridine-2-carboxamide]: 250 to 1000 nM. As for `O=C(COc1ccc(Cl)c(F)c1)NC12CC(Nc3nc4cc(Cl)ccc4o3)(C1)C2` [Compound 369, N-{3-[(5-chloro-1,3-benzoxazol-2-yl)amino]bicyclo[1.1.1]pentan-1-yl}-2-(4-chloro-3-fluorophenoxy)acetamide], the EC50 fell in the range of 1000 to 2000 nM. The result for `O=C(COc1ccc(Cl)c(F)c1)NC12CC(NC(=O)c3ccc4c(c3)OCO4)(C1)C2` [Compound 239, N-{3-[2-(4-chloro-3-fluorophenoxy)acetamido]bicyclo[1.1.1]pentan-1-yl}-2H-1,3-benzodioxole-5-carboxamide] reads 50 to 250 nM.

Take `Cc1ccc(C(=O)NC23CC(NC(=O)COc4ccc(Cl)c(F)c4)(C2)C3)c(C)n1` [Compound 684, N-{3-[2-(4-chloro-3-fluorophenoxy)acetamido]bicyclo[1.1.1]pentan-1-yl}-2,6-dimethylpyridine-3-carboxamide]: the EC50 lay within 1000 to 2000 nM.

For the compound `O=C(COc1ccc(Cl)c(F)c1)NC12CCC(NC(=O)c3cnc4ccccc4n3)(CC1)C(O)C2` (centres unmarked) [Compound 223, N-{4-[2-(4-chloro-3-fluorophenoxy)acetamido]-2-hydroxybicyclo[2.2.2]octan-1-yl}quinoxaline-2-carboxamide], the EC50 is 50 to 250 nM.

On to `O=C(COc1ccc(Cl)c(F)c1)NC12CC(NC(=O)c3cc(/C=C/CO)ccn3)(C1)C2` [Compound 200, N-{3-[2-(4-chloro-3-fluorophenoxy)acetamido]bicyclo[1.1.1]pentan-1-yl}-4-[(1E)-3-hydroxyprop-1-en-1-yl]pyridine-2-carboxamide], for which the EC50 is 50 to 250 nM. For `O=C(COc1ccc(Cl)c(F)c1)NC12CCC(NC(=O)c3cc(C4CC4)no3)(CC1)C(O)C2` (centres unmarked) [Compound 331, N-{4-[2-(4-chloro-3-fluorophenoxy)acetamido]-2-hydroxybicyclo[2.2.2]octan-1-yl}-3-cyclopropyl-1,2-oxazole-5-carboxamide], the EC50 was 250 to 1000 nM.

With `CCc1cnc(C(=O)NC23CC(NC(=O)COc4ccc(Cl)c(F)c4)(C2)C3)cn1` [Compound 708, N-{3-[2-(4-chloro-3-fluorophenoxy)acetamido]bicyclo[1.1.1]pentan-1-yl}-5-ethylpyrazine-2-carboxamide], the EC50 lay in the range of 50 to 250 nM. On to `Cc1cc2c(NC34CC(NC(=O)COc5ccc(F)c(F)c5)(C3)C4)nccn2n1` [Compound 436, 2-(3,4-difluorophenoxy)-N-{3-[(2-methylpyrazolo[1,5-a]pyrazin-4-yl)amino]bicyclo[1.1.1]pentan-1-yl}acetamide], for which the EC50 is 50 to 250 nM.

`Cn1ncc(C(=O)NC23CC(NC(=O)COc4ccc(Cl)c(F)c4)(C2)C3)c1C(F)(F)F` [Compound 874, N-{3-[2-(4-chloro-3-fluorophenoxy)acetamido]bicyclo[1.1.1]pentan-1-yl}-1-methyl-5-(trifluoromethyl)-1H-pyrazole-4-carboxamide]: the half-maximal effective concentration (EC50) was over 2000 nM.

For the compound `O=C(COc1ccc(Cl)c(F)c1)NC12CCC(NC(=O)c3cnc(C(F)(F)F)s3)(C1)C2` [Compound 647, N-{4-[2-(4-chloro-3-fluorophenoxy)acetamido]bicyclo[2.1.1]hexan-1-yl}-2-(trifluoromethyl)-1,3-thiazole-5-carboxamide], the EC50 was in the range of 250 to 1000 nM. Next, `O=C(COc1ccc(Cl)c(F)c1)NC12CC(NC(=O)c3ccc(Cl)cc3)(C1)C2` [Compound 199, 4-chloro-N-{3-[2-(4-chloro-3-fluorophenoxy)acetamido]bicyclo[1.1.1]pentan-1-yl}benzamide]: 50 to 250 nM; `O=C(COc1ccc(Cl)c(F)c1)NC12CC(NC(=O)c3cc(F)cc(F)c3)(C1)C2` [Compound 513, N-{3-[2-(4-chloro-3-fluorophenoxy)acetamido]bicyclo[1.1.1]pentan-1-yl}-3,5-difluorobenzamide]: 50 to 250 nM. In the case of `Cc1cc(C(=O)NC23CCC(NC(=O)COc4ccc(Cl)c(F)c4)(CC2)[C@@H](O)C3)n(C)n1` (single isomer, unassigned) [Compound 485], the EC50 is under 50 nM.
